Laboratory results published in patent US20240190866A1, “POLYHYDROXYLATED INDOLIZIDINE AND PYRROLIZIDINE DERIVATIVES AND USES THEREOF” (Academia Sinica, priority 2021, published 2024).
Read-outs that look alike come from different tables or passages of the source.

Key:
[1] = test system: all cancer cell lines (HepG2, Huh7, PANC-1, H1975, MDA-MB-231); assay: Anti-proliferative activity, pooled statement over all cancer cell lines; type: cell-based, human; conditions: read-out: half maximum inhibitory concentration (IC50), range in all cancer cell lines
Procedure: (§1) Anti-proliferative activity of HepG2, Huh7 or PANC-1 cells was determined by 3-(4,5-dimethylthiazol-2-yl)-2,5-diphenyltetrazolium bromide (MTT) assay, while that of H1975 or MDA-MB-231 cells was determined by luminescent assay with the aid of commercial kit CellTiter-Glo® (Promega).
(§2) Cancer cells including HepG2, Huh7 and PANC-1 cells were respectively seeded at 10^4, 4×10^3, and 5×10^3 cells/well in 96-well plates and maintained for 14-16 hours. Cells were treated with dimethylsulfoxide (DMSO) or test compounds in varied concentrations for 72 h. Cells were then washed with PBS twice, added a medium containing 3-(4,5-dimethylthiazol-2-yl)-2,5-diphenyltetrazolium bromide (MTT) at a final concentration of 0.5 mg/mL, and incubated for 4 h at 37° C. in a humidified incubator containing 5% CO2 in air. Cells having functional succinate dehydrogenase of mithchondria would convert MTT to formazan. Then, the medium was replaced with 100 μL of DMSO for 30 min at room temperature, and the 96-well plate was read by an ELISA reader at 550 nm to get the absorbance density values. The IC50 values of death cell lines were calculated accordingly.
(§3) For H1975 and MDA-MB-231, cells were respectively seeded at 5×10^3 cells/well in 96-well plates and maintained for 14-16 hours. Cells were treated with dimethylsulfoxide (DMSO) or test compounds in varied concentrations for 48 h. Cell viability was monitored using Cell-TiterGlo (Promega), a kit that measures the quantity of ATP present in the cell culture, an indicator of metabolically active cells. The IC50 values of death cell lines were calculated accordingly.

Huh7 cells [2] = assay: Transwell invasion assay; type: cell-based, human
Procedure: (§4) Chemotaxis experiments with human HepG2Huh7, or PANC-1 cells were assayed by using transwells (Millipore). The cells to be analyzed (5×10^4 cells/well) were seeded in the upper chambers of the 24-well plate in 400 μL serum-free medium. FBS (10%) was used as the chemoattractant with or without different concentrations of the test compound (e.g., ACK900, ACK901, ACK902) in the lower chamber, and the plate was incubated under standard conditions. After incubation for 18 hours, the media in the upper chambers were aspirated and washed with phosphate-buffered saline (PBS) twice. Both non-migrated and migrated cells were fixed with 4% paraformaldehyde (PFA) for 30 minutes at room temperature, stained with 2% crystal violet solution. The non-invading cells were removed from the upper surface of the insert membrane with a cotton swab. The images were taken using an imaging reader (Cytation 5, BioTek, VT, U.S.A.) and analyzed using NIH ImageJ software. Percent in the results represent percent of initial number of cells in the migrating and nonmigrating Cell fractions.

PANC-1 cells [3] = assay: Transwell invasion assay; type: cell-based, human; conditions: PANC-1, transwell
Procedure: as §4

Huh7 cells [4] = assay: Transwell migration assay; type: cell-based, human; conditions: 18 hours
Procedure: as §4

PANC-1 cells [5] = assay: Transwell migration assay; type: cell-based, human; conditions: PANC-1, transwell, 18 hours
Procedure: as §4

[6] = Serum biochemistry assay in Huh7 xenograft mice; type: in vivo, NOD-SCID mice; conditions: 30 mg/kg i.p., twice a week; for ALT / AST / BUN / CRE / TBIL: serum
Procedure: All blood specimens were collected in tubes and were left at 25° C. for 30 min to clot and centrifuged for 10 min at 1200 g. The concentrations of the following biochemical serum analytes collected were measured with FUJI DRI-CHEM 500i analyzer (FUJIFILM Corp., Tokyo, Japan) using the manufacturer's reagents and according to the manufacturer's instructions: Alanine Aminotransferase ALT), Aspartate Aminotransferase (AST), Blood Urea Nitrogen (BUN), Creatinine (CRE) and Total Bilirubin (TBIL).
(§5) HCC xenografts were established in 5-6 weeks old NOD-SCID mice by subcutaneous inoculation of about 5×10^6 Huh7 cells suspended in 50 μL PBS+50 μL, Matrigel (Corning, 394230) in the left and right flanks of each mouse. After one week of inoculation, tumors were palpable and the mice were assigned randomly to 1 of 4 treatment groups. Group 1 (vehicle control group, n=6) mice only received a vehicle solution containing Kolliphor EL (Sigma Aldrich, C5135), 99.9% ethanol and water in a ratio of 1:1:6. Groups 2, 3, 4 and 5 mice were intraperitoneally injected with the test compound (e.g., compound ACK900, ACK901, or ACK902) (30 mg/kg, ip, n=7/group) or sorafenib (30 mg/kg, ip, n=6/group), twice per week for 25 days. The tumor volume was calculated by the formula of a ratioinal ellipsoid: [0.5236×short axis) m1^2×(long axis)m^2], and the tumor volume was measured twice per week. All mice were sacrificed at 27 days after the treatment started. Tumor tissues were isolated, photographed and weighted.
In vivo tumor growth inhibition studies in human Huh7 xenograft rodents were performed in accordance with procedures as described in the “Material and Method” section. Xenograft tumors were generated by implanting Huh7 cells (5×10^6) subcutaneously into the left and right flanks of each NOD-SCID mouse. Starting on the 7th day after the inoculation of Huh7 cells, the mice were injected with ACK900, ACK901, ACK902 or sorafenib intraperitoneally (i.p.) at a dose of 30 mg/kg and twice a week for 34 days.

H1975 cells = assay: Anti-proliferative activity assay (CellTiter-Glo); type: cell-based, human; conditions: 48 h
Procedure: (§6) Human liver cancer HepG2 cells and Huh7 cells, breast cancer MDA-MB-231 cells, pancreatic cancer PANC-1 cells, and non-small cell lung (NSCL) cancer H1975 cells were maintained in Dulbecco's Modified Eagle Medium supplemented containing 10% fetal bovine serum (FBS), 100 units/ml penicillin and […] streptomycin in 37° C. incubator with 5% CO2.
as §1, §3

MDA-MB-231 cells = assay: Anti-proliferative activity assay (CellTiter-Glo); type: cell-based, human
Procedure: as §6, §1, §3

[7] = target: human lysosomal α-mannosidase (α-hLM) (Homo sapiens (Human), UniProt O00754); assay: α-Mannosidase (α-hLM) activity assay, 4-MU-α-D-mannopyranoside substrate; type: biochemical; conditions: pH 4.6, 37° C., 1 h
Procedure: (§7) Compounds were diluted to give the final concentration of 100 μM and mixed with 4-MU-α-D-mannopyranoside as substrate and human Golgi α-mannosidase II in phosphate buffer (0.1 M Sodium phosphate dibasic, pH 7.0) or human lysosomal α-mannosidase in citric phosphate buffer (0.1 M Sodium phosphate monobasic monohydrate, 0.5 mM citric acid monohydrate, pH 4.6). The assay was carried out at 37° C. for a certain time (1 h for α-hLM, 2 h for α-hGMII). Stop solution (0.5 M K2CO3(aq), pH 10.8) was then added to the reactions and the fluorescence was determined at 355 nm excitation and 460 nm emission (SpectraMax M5, Molecular Devices). Inhibition was performed as relative enzyme activity to control. The active compounds were selected for libraries preparation and further tested at lower concentration to determine their IC50 values. The assays performed in 384-wells of the microtiter plates.

HepG2 cells [8] = assay: Anti-proliferative activity assay (MTT); type: cell-based, human; conditions: 72 h
Procedure: as §6, §1, §2

Huh7 cells [9] = assay: Anti-proliferative activity assay (MTT); type: cell-based, human; conditions: 72 h
Procedure: as §6, §1, §2

PANC-1 cells [10] = assay: Anti-proliferative activity assay (MTT); type: cell-based, human; conditions: 72 h
Procedure: as §6, §1, §2

[11] = target: human Golgi α-mannosidase II (α-hGMII) (Homo sapiens (Human), UniProt Q16706); assay: Golgi α-mannosidase II (α-hGMII) activity assay, 4-MU-α-D-mannopyranoside substrate; type: biochemical; conditions: for IC50: pH 7.0, 37° C., 2 h; for Selectivity Index (SI): selectivity toward α-hGMII than α-hLM
Procedure: as §7

Huh7 cells [12] = conditions: Data from Int. J. Med. Sci. 2017, 14, 523; cited from earlier work
HepG2 cells [13] = conditions: Data from Int. J. Med. Sci. 2017, 14, 523; cited from earlier work
Huh7 xenograft tumors = assay: Human hepatocarcinoma (HCC) Huh7 cells xenograft animal model; type: in vivo, NOD-SCID mice; conditions: 30 mg/kg i.p., twice a week
Description: A total of 34 NOD-SCID mice to (5- to 6-week-old) were maintained in micro-isolator units on a standard laboratory diet. Animals were housed under humidity- and temperature-controlled conditions and the light/dark cycle was set at 12-hour intervals, maintained under specified and opportunistic pathogen-free conditions. Mice were quarantined at least 1 week before experimental manipulation
as §5, with “weighted. […]” for “weighted.”

Chain of human lysosomal α-mannosidase (α-hLM) (O00754 50-1011): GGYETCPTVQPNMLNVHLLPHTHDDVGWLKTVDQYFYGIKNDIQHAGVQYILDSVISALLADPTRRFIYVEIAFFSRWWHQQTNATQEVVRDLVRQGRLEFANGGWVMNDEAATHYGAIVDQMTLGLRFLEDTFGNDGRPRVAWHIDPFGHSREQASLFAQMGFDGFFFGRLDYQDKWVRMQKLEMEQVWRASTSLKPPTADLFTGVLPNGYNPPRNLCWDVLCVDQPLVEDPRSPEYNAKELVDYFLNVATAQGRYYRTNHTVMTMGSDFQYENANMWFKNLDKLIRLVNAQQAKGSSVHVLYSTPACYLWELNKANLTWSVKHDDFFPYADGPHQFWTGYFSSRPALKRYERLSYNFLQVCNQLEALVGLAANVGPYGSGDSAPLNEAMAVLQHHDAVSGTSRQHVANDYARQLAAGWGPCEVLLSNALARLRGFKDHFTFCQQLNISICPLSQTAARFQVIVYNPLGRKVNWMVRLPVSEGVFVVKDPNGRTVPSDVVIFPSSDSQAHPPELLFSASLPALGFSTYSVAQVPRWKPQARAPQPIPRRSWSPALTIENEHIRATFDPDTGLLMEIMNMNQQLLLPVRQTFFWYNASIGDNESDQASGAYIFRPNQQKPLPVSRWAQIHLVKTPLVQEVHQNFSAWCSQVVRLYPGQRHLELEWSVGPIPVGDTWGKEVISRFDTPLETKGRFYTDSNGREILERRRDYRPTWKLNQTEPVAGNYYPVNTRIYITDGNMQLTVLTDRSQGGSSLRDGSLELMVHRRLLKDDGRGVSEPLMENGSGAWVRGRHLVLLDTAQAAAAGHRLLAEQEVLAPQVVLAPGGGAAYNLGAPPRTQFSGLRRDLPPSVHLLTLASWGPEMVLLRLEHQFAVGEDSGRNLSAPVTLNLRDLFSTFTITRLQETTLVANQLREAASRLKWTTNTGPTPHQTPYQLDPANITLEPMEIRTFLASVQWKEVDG
Chain of human Golgi α-mannosidase II (α-hGMII) (Q16706 whole entry): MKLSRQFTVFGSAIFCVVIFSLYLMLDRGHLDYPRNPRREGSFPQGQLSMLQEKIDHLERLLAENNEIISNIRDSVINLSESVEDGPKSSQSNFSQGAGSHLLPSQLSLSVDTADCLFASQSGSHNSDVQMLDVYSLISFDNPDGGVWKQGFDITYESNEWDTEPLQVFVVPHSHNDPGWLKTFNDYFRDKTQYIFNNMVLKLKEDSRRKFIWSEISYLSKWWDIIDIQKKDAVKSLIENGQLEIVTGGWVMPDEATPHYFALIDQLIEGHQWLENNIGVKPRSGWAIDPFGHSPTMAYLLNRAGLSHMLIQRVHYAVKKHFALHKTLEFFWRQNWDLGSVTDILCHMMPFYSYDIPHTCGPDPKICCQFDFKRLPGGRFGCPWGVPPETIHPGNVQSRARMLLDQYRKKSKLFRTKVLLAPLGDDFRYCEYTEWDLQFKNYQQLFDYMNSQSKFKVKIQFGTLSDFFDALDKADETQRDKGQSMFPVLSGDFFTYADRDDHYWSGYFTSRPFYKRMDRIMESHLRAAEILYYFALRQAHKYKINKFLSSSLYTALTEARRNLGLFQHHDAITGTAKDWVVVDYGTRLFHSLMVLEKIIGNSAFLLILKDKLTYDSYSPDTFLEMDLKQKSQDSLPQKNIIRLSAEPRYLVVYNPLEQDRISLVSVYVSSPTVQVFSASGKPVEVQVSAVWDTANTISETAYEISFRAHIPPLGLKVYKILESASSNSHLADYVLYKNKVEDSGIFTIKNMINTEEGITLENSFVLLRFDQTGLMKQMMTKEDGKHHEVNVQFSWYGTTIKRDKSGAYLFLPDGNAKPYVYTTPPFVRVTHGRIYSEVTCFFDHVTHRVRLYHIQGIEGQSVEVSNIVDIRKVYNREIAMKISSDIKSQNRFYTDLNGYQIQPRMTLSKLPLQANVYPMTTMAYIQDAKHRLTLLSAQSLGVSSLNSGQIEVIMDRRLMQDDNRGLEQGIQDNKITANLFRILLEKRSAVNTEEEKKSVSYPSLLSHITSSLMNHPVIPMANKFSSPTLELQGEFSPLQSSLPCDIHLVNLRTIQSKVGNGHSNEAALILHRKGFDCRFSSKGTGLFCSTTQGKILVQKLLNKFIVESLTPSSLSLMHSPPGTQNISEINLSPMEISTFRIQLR

Row | Compound | ALT [6] [U/L] | AST [6] [U/L] | BUN [6] [mg/dL] | CRE [6] [mg/dL] | TBIL [6] [mg/dL] | IC50 [7] [µM] | IC50 [11] [µM] | Selectivity Index (SI) [11] | other results
1 | CCCCCC[C@H]1CC[C@H](c2ccc(NC(=S)NC[C@@H]3[C@@H](O)[C@@H](O)[C@H]4[C@H](O)CCCN43)cc2)CC1 [ACK901] | 74.85 ± 82.13 | 173.85 ± 95.67 | 21.87 ± 3.77 | 0.47 ± 0.18 | 0.64 ± 0.37 | 21.5 | 1 | – | IC50 [1]: 0.3 to 19.1 µM; invasive capability (Huh7 cells [2]): remarkably decreased; invasive capability (PANC-1 cells [3]): remarkably decreased; migratory capability (Huh7 cells [4]): remarkably decreased; migratory capability (PANC-1 cells [5]): remarkably decreased; IC50 (H1975 cells): 7.7 µM; IC50 (MDA-MB-231 cells; 48 h): 1 µM; IC50 (HepG2 cells [8]): 1.8 µM; IC50 (Huh7 cells [9]): 1.3 µM; IC50 (PANC-1 cells [10]): 0.3 µM
2 | CCC[C@H]1CC[C@H](c2ccc(C(=O)NC[C@@H]3[C@@H](O)[C@@H](O)[C@H]4[C@H](O)CCCN43)cc2)CC1 [ACK902] | 64.42 ± 57.49 | 250 ± 182.44 | 23.87 ± 4.30 | 0.43 ± 0.11 | 0.9 ± 0.56 | 6.8 | 1.6 | 4.3 | IC50 [1]: 0.3 to 19.1 µM; invasive capability (Huh7 cells [2]): remarkably decreased; invasive capability (PANC-1 cells [3]): remarkably decreased; migratory capability (Huh7 cells [4]): remarkably decreased; migratory capability (PANC-1 cells [5]): remarkably decreased; IC50 (H1975 cells): 11.5 µM; IC50 (MDA-MB-231 cells; 48 h): 9.9 µM; IC50 (HepG2 cells [8]): 14.5 µM; IC50 (Huh7 cells [9]): 3.7 µM; IC50 (PANC-1 cells [10]): 1.6 µM
3 | O=C(NC[C@@H]1[C@@H](O)[C@@H](O)[C@H]2[C@H](O)CCCN21)c1ccc(-c2ccccc2)cc1 [ACK903] | – | – | – | – | – | 0.65 | 0.19 | 3.4 | –
4 | COc1ccc(NC(=S)NC[C@@H]2[C@@H](O)[C@@H](O)[C@H]3[C@H](O)CCCN32)cc1 [ACK904] | – | – | – | – | – | 0.95 | 0.8 | 1.2 | –
5 | O[C@@H]1[C@H](O)[C@@H](CNC(=S)Nc2ccccc2)N2CCC[C@@H](O)[C@H]12 [ACK905] | – | – | – | – | – | 1.5 | 1.3 | 1.1 | –
6 | COc1cccc2c1C(=O)c1c(O)c3c(c(O)c1C2=O)C[C@@](O)(C(=O)CO)C[C@@H]3O[C@H]1C[C@H](N)[C@H](O)[C@H](C)O1 [Doxorubicin, doxorubicin, reference compound] | – | – | – | – | – | – | – | – | IC50 (MDA-MB-231 cells; Homo sapiens, MDA-MB-231, 48 h): 1.3 to 3 µM
7 | CNC(=O)c1cc(Oc2ccc(NC(=O)Nc3ccc(Cl)c(C(F)(F)F)c3)cc2)ccn1 [Sorafenib, sorafenib, reference compound] | 61.33 ± 54.45 | 135.33 ± 90.76 | 23 ± 2.53 | 0.35 ± 0.19 | 0.73 ± 0.32 | – | – | – | IC50 (Huh7 cells [12]): 5.97 µM; serious side effects including hepatoxicity and nephrotoxicity [6]: no serious side effects including hepatoxicity and nephrotoxicity were observed; IC50 (HepG2 cells [13]): 7.42 µM; signs of harm or decreased body weight (Huh7 xenograft tumors): none of the mice injected with ACK900-ACK902 or sorafenib exhibited signs of harm or decreased body weight; tumor volume vs control (Huh7 xenograft tumors; P<0.05): Significant reduction
8 | O[C@H]1[C@H]2[C@H](O)CCCN2C[C@H]1O [Swainsonine, swainsonine, reference compound] | – | – | – | – | – | – | 0.04 | 2 | –
